What all share (type): functional
One experiment has as its system SNB-75. The experiment can be described thus: Cytotoxicity against Homo sapiens (human) SNB75 assessed as cell growth at 10 uM after 48 hr by SRB assay relative to control. The conditions noted are these: SNB-75, 48 h, read-out: Activity. A general note: Sulforhodamine B stains cellular protein and so reports cell mass.
Another experiment deals with SF-295. The experiment can be described thus: Cytotoxicity against Homo sapiens (human) SF295 assessed as cell growth at 10 uM after 48 hr by SRB assay relative to control. The settings on record: SF-295, 48 h, read-out: Activity.
A further experiment concerns HT-29. The experiment is described as follows: Cytotoxicity against Homo sapiens (human) HT-29 assessed as cell growth at 10 uM after 48 hr by SRB assay relative to control. The conditions noted are these: HT-29, 48 h, read-out: Activity.
The test system of another experiment is A549. The experiment can be described thus: Cytotoxicity against Homo sapiens (human) A549 assessed as cell growth at 10 uM after 48 hr by SRB assay relative to control. The conditions noted are these: A549, 48 h, read-out: Activity.
A further experiment relates to SR. The experiment can be described thus: Cytotoxicity against Homo sapiens (human) SR assessed as cell growth at 10 uM after 48 hr by SRB assay relative to control. The conditions noted are these: read-out: Activity.
For another experiment, the system named is RPMI-8226. The experiment can be described thus: Cytotoxicity against Homo sapiens (human) RPMI8226 assessed as cell growth at 10 uM after 48 hr by SRB assay relative to control. The conditions noted are these: RPMI-8226, 48 h, read-out: Activity.
In another experiment the test system is RXF 393. The experiment can be described thus: Cytotoxicity against Homo sapiens (human) RXF393 assessed as cell growth at 10 uM after 48 hr by SRB assay relative to control. The conditions noted are these: RXF 393, 48 h, read-out: Activity.
The test system of another experiment is CAKI-1. The experiment can be described thus: Cytotoxicity against Homo sapiens (human) Caki1 assessed as cell growth at 10 uM after 48 hr by SRB assay relative to control. The settings on record: CAKI-1, 48 h, read-out: Activity.
Another experiment relates to OVCAR-8. The experiment is described as follows: Cytotoxicity against Homo sapiens (human) OVCAR8 assessed as cell growth at 10 uM after 48 hr by SRB assay relative to control. The conditions noted are these: OVCAR-8, 48 h, read-out: Activity.
A further experiment concerns UACC-62. The experiment is described as follows: Cytotoxicity against Homo sapiens (human) UACC62 assessed as cell growth at 10 uM after 48 hr by SRB assay relative to control. The settings on record: UACC-62, 48 h, read-out: Activity.
The test system of a further experiment is SK-MEL-5. The experiment is described as follows: Cytotoxicity against Homo sapiens (human) SK-MEL-5 assessed as cell growth at 10 uM after 48 hr by SRB assay relative to control. The settings on record: SK-MEL-5, 48 h, read-out: Activity.
The subject of another experiment is M14. The experiment is described as follows: Cytotoxicity against Homo sapiens (human) M14 assessed as cell growth at 10 uM after 48 hr by SRB assay relative to control. The settings on record: M14, 48 h, read-out: Activity.
For another experiment, the system named is U-251. The experiment can be described thus: Cytotoxicity against Homo sapiens (human) U251 assessed as cell growth at 10 uM after 48 hr by SRB assay relative to control. The conditions noted are these: U-251, 48 h, read-out: Activity.
Another experiment deals with CCRF-CEM. The experiment is described as follows: Cytotoxicity against Homo sapiens (human) CCRF-CEM assessed as cell growth at 10 uM after 48 hr by SRB assay relative to control. The settings on record: read-out: Activity.
For a further experiment, the system named is HL-60(TB). The experiment is described as follows: Cytotoxicity against Homo sapiens (human) HL-60(TB) assessed as cell growth at 10 uM after 48 hr by SRB assay relative to control. The settings on record: HL-60, 48 h, read-out: Activity.
Another experiment has as its system MDA-MB-468. The experiment is described as follows: Cytotoxicity against Homo sapiens (human) MDA-MB-468 assessed as cell growth at 10 uM after 48 hr by SRB assay relative to control. The settings on record: MDA-MB-468, 48 h, read-out: Activity.
For another experiment, the system named is MDA-MB-231. The experiment is described as follows: Cytotoxicity against Homo sapiens (human) MDA-MB-231 assessed as cell growth at 10 uM after 48 hr by SRB assay relative to control. The settings on record: MDA-MB-231, 48 h, read-out: Activity.
The next experiment deals with DU-145. The experiment is described as follows: Cytotoxicity against Homo sapiens (human) DU145 assessed as cell growth at 10 uM after 48 hr by SRB assay relative to control. The settings on record: DU-145, 48 h, read-out: Activity.
A further experiment relates to TK-10. The experiment is described as follows: Cytotoxicity against Homo sapiens (human) TK10 assessed as cell growth at 10 uM after 48 hr by SRB assay relative to control. The settings on record: TK-10, 48 h, read-out: Activity.
A further experiment relates to NCI-H322M. The experiment is described as follows: Cytotoxicity against Homo sapiens (human) NCI-H322M assessed as cell growth at 10 uM after 48 hr by SRB assay relative to control. The settings on record: read-out: Activity.
The next experiment deals with Malme-3M. The experiment can be described thus: Cytotoxicity against Homo sapiens (human) MALME-3M assessed as cell growth at 10 uM after 48 hr by SRB assay relative to control. The conditions noted are these: read-out: Activity.

Molecules are shown by their SMILES.

For the molecule `Oc1c(-c2n[nH]c(=S)o2)sc2nnc(-c3ccccc3)c(-c3ccccc3)c12`, the growth at 10 µM in the experiment with SNB-75 amounted to 72.6%; in the experiment on SF-295 it was 112%; in the experiment on HT-29 it was 114%; in the experiment on A549 it was 107%; in the experiment with SR, 83.4%; with RPMI-8226, 102%. Besides, the growth at 10 µM in the experiment with RXF 393 was 109%; with CAKI-1 it was 93.3%; with OVCAR-8 it was 106%; in the experiment with UACC-62, 94.3%; in the experiment on SK-MEL-5, 94.7%; with M14, 99.5%. For the same molecule, the growth at 10 µM with U-251 was found to be 106%; with CCRF-CEM, 96.1%; in the experiment with HL-60(TB) it was 101%; with MDA-MB-468, 108%; in the experiment with MDA-MB-231, 109%; in the experiment with DU-145, 112%. Further, the growth at 10 µM in the experiment on TK-10 was found to be 103%.

On to `CC1=NN(C(=O)c2sc3nnc(-c4ccccc4)c(-c4ccccc4)c3c2O)C(=O)C1`, for which the growth at 10 µM in the experiment on SNB-75 is 90%; in the experiment on SF-295 it was 48.8%; with HT-29, 119%; with A549 it was 84.5%; with SR it was 68.6%; with RPMI-8226, 59.3%. For the same molecule, the growth at 10 µM with RXF 393 was 95.6%; in the experiment with CAKI-1 it was 31%; in the experiment with OVCAR-8, 87%; in the experiment on UACC-62, 77.4%; in the experiment on SK-MEL-5, 80.2%; in the experiment on M14, 87.4%. Further, the growth at 10 µM with U-251 is 71.7%; in the experiment on CCRF-CEM, 49.5%; with HL-60(TB), 69.4%; with MDA-MB-468, 80.5%; with MDA-MB-231 it was 122%; in the experiment with DU-145 it was 97.8%. The growth at 10 µM with TK-10 turned out to be 103%.

In the case of `CSc1nnc(-c2sc3nnc(-c4ccccc4)c(-c4ccccc4)c3c2O)o1`, the growth at 10 µM with SNB-75 is 78.4%; in the experiment on SF-295 it was 40.9%; in the experiment on HT-29, 107%; with A549, 80.5%; with SR, 62.5%; with RPMI-8226, 67.2%. Also, the growth at 10 µM in the experiment on RXF 393 turned out to be 82.6%; in the experiment with CAKI-1, 43.5%; with OVCAR-8, 85.8%; in the experiment on UACC-62, 58.9%; with SK-MEL-5 it was 83.5%; in the experiment on M14, 73%. Besides, the growth at 10 µM was found to be 62.9% with U-251; 47.4% in the experiment with CCRF-CEM; 107% in the experiment on HL-60(TB); 78.9% in the experiment with MDA-MB-468; 90.4% in the experiment with MDA-MB-231; 84.7% in the experiment with DU-145. Also, the growth at 10 µM with TK-10 came out at 100%.

As to `Oc1c(-c2nnc(SCc3ccccc3)o2)sc2nnc(-c3ccccc3)c(-c3ccccc3)c12`, the growth at 10 µM in the experiment with SNB-75 turned out to be 87.8%; in the experiment with HT-29, 89.8%; in the experiment on SR, 106%; in the experiment on RPMI-8226 it was 92.9%; in the experiment with NCI-H322M it was 93.6%; in the experiment on RXF 393, 90%. Besides, the growth at 10 µM was determined as 114% in the experiment with CAKI-1; 104% in the experiment on OVCAR-8; 78.6% in the experiment on UACC-62; 99.7% with SK-MEL-5; 108% in the experiment with M14; 122% in the experiment on U-251. Also, the growth at 10 µM with CCRF-CEM amounted to 66.8%; with HL-60(TB), 69.8%; in the experiment on MDA-MB-468 it was 101%; in the experiment with MDA-MB-231, 97.9%; in the experiment on DU-145 it was 112%; in the experiment on TK-10, 92.9%.

Take `CNc1nnc(-c2sc3nnc(-c4ccccc4)c(-c4ccccc4)c3c2O)s1`: the growth at 10 µM amounted to 87.9% in the experiment on SNB-75; 91.7% in the experiment on SF-295; 102% with HT-29; 78.2% with SR; 113% with RPMI-8226; 106% in the experiment on NCI-H322M. Also, the growth at 10 µM in the experiment on RXF 393 was 103%; in the experiment with CAKI-1, 72%; in the experiment with Malme-3M it was 111%; in the experiment on OVCAR-8 it was 104%; with UACC-62 it was 97.5%; with SK-MEL-5, 104%. The growth at 10 µM in the experiment with M14 was 107%; with CCRF-CEM, 110%; in the experiment on HL-60(TB), 107%; in the experiment with MDA-MB-468, 92.6%; in the experiment on MDA-MB-231, 104%; in the experiment on DU-145, 135%. In the experiment with TK-10, the growth at 10 µM amounted to 108%.

On to `Oc1c(-c2nnc(-c3ccccc3)o2)sc2nnc(-c3ccccc3)c(-c3ccccc3)c12`, for which the growth at 10 µM in the experiment with SNB-75 turned out to be 84.4%; in the experiment with SF-295 it was 42.9%; with HT-29, 103%; with SR it was 46.8%; in the experiment with RPMI-8226, 64.8%; with NCI-H322M, 42.5%. The growth at 10 µM with RXF 393 was 85.6%; in the experiment with CAKI-1, 29.1%; in the experiment on Malme-3M, 83.5%; in the experiment on OVCAR-8, 66.8%; in the experiment with UACC-62, 51.1%; with SK-MEL-5, 71.2%. The growth at 10 µM in the experiment on M14 turned out to be 69.6%; with CCRF-CEM, 47.7%; in the experiment on HL-60(TB), 83.2%; in the experiment on MDA-MB-468, 64.7%; with MDA-MB-231, 89.2%; in the experiment on DU-145, 106%. Besides, the growth at 10 µM with TK-10 turned out to be 90.6%.

For `CCOC(=O)c1c(Nc2ccc(S(N)(=O)=O)cc2)nnc(-c2ccccc2)c1-c1ccccc1`, the growth at 10 µM in the experiment with SNB-75 turned out to be 84.6%; in the experiment on SF-295 it was 88.5%; in the experiment on HT-29, 118%; in the experiment with A549, 90.9%; in the experiment on SR, 76.1%; with RPMI-8226 it was 80.9%. For the same molecule, the growth at 10 µM with RXF 393 was 109%; in the experiment on CAKI-1 it was 83.8%; in the experiment on OVCAR-8, 99.8%; in the experiment on UACC-62, 90.2%; in the experiment on SK-MEL-5, 94.6%; in the experiment with M14, 104%. For the same molecule, the growth at 10 µM in the experiment on U-251 turned out to be 95%; in the experiment with CCRF-CEM, 81.8%; with HL-60(TB) it was 71.2%; with MDA-MB-468, 97.9%; in the experiment on MDA-MB-231 it was 108%; in the experiment on DU-145 it was 120%. Also, the growth at 10 µM in the experiment on TK-10 stood at 108%.

Take `CCOC(=O)c1c(Nc2ccc(S(=O)(=O)Nc3nccs3)cc2)nnc(-c2ccccc2)c1-c1ccccc1`: the growth at 10 µM with SNB-75 was 104%; in the experiment with SF-295, 101%; in the experiment on HT-29, 116%; in the experiment with A549, 110%; with SR it was 76.2%; in the experiment on RPMI-8226 it was 96.5%. In addition, the growth at 10 µM was 120% with RXF 393; 107% in the experiment with CAKI-1; 102% in the experiment with OVCAR-8; 92.9% in the experiment with UACC-62; 97.6% in the experiment on SK-MEL-5; 104% with M14. Moreover, the growth at 10 µM in the experiment with U-251 turned out to be 98.5%; with CCRF-CEM it was 91.3%; in the experiment with HL-60(TB), 104%; in the experiment on MDA-MB-468, 110%; with MDA-MB-231, 115%; with DU-145 it was 114%. For the same molecule, the growth at 10 µM in the experiment with TK-10 amounted to 109%.

For the origin of these results see ChEMBL document CHEMBL3045770, “Design and synthesis of some thieno[2,3-c]pyridazine derivatives of expected anticancer activity” (2013).
